According to BindingDB's records for doi:10.1021/jm9804127 (Glaxo Wellcome Research and Development, 1999):

Target: not listed separately
Assay: Ability to promote differentiation of C3H10T1/2 stem cells to adipocytes using lipogenesis assay mediated through activation of Peroxisome proliferator activated receptor gamma

Structure (SMILES)	EC50 [nM]
CN(CCOc1ccc(CC(Nc2cccc3c2C(=O)c2ccccc2-3)C(=O)O)cc1)c1nc2ccccc2o1 (configuration not stated)	575
CN(CCOc1ccc(CC(Nc2ccccc2C(=O)Cc2ccccc2)C(=O)O)cc1)c1nc2ccccc2o1 (configuration not stated)	47
Cc1c(C)c2c(c(C)c1O)CCC(C)(COc1ccc(C[C@H](Nc3ccccc3C(=O)c3ccccc3)C(=O)O)cc1)O2 (some centres not stated)	363
CC1(COc2ccc(C[C@H](Nc3ccccc3C(=O)c3ccccc3)C(=O)O)cc2)CCCCC1	1150
CN(CCOc1ccc(CC(Nc2ccccc2C(O)c2ccccc2)C(=O)O)cc1)c1ccccn1 (configuration not stated)	1320
CN(CCOc1ccc(CC(Oc2ccccc2C(=O)c2ccccc2)C(=O)O)cc1)c1nc2ccccc2o1 (configuration not stated)	1150

Results, then the compound that gave them:

EC50 [nM]	Structure (SMILES)
4.4	CN(CCOc1ccc(C[C@H](Nc2ccccc2C(=O)c2ccccc2)C(=O)O)cc1)c1nc2ccccc2o1
1510	O=C(c1ccccc1)c1ccccc1N[C@@H](Cc1ccc(OCc2ccccc2)cc1)C(=O)O
2190	CN(CCOc1ccc(CC(Nc2ccccc2S(=O)(=O)c2ccccc2)C(=O)O)cc1)c1nc2ccccc2o1 (configuration not stated)
501	CCc1ccc(CCOc2ccc(C[C@H](Nc3ccccc3C(=O)c3ccccc3)C(=O)O)cc2)nc1
468	CN(CCOc1ccc(CC(Nc2ccccc2Oc2ccccc2)C(=O)O)cc1)c1nc2ccccc2o1 (configuration not stated)

Target: T1, Peroxisome proliferator-activated receptor gamma (Homo sapiens, UniProt P37231)
T1 sequence (P37231 whole entry): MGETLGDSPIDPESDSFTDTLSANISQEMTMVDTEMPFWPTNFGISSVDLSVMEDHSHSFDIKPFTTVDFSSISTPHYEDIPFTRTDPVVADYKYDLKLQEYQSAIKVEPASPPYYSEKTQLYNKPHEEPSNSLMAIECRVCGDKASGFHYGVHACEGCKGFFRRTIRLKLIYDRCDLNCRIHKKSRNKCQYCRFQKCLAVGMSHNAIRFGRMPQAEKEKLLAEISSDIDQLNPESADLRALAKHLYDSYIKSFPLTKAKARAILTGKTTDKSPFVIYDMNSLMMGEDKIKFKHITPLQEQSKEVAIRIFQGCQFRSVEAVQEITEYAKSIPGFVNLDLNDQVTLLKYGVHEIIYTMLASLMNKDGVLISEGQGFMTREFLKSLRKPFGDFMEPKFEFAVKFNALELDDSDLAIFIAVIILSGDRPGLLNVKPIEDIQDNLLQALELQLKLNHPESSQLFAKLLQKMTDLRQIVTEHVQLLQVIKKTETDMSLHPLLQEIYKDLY
Assay: Ability to promote differentiation of C3H10T1/2 stem cells to adipocytes using lipogenesis assay mediated through activation of Peroxisome proliferator activated receptor gamma

Structure (SMILES)	EC50 [nM]
CN(CCOc1ccc(CC(Nc2ccccc2C(N=N)c2ccccc2)C(=O)O)cc1)c1ccccn1 (configuration not stated)	1230
